# Measured values: paper PMC11045757, “Group 3 medulloblastoma transcriptional networks collapse under domain specific EP300/CBP inhibition” (Nature Communications, 2024)
# Test system: 460 barcoded cancer cell lines
# Assay: PRISM pooled barcoded cancer cell line growth screen, 10-point dose-response, 5 days, AUC
# Format: cell-based
# Set-up: scale not given here
# From the text: Several small molecule inhibitors of distinct protein domains of EP300/CBP are available, though the majority target the histone acetyltransferase domain (HAT) or bromodomain (BRD)[5],[10],[21],[22]. […] We used these tools to investigate the relative contribution of the EP300/CBP BRD or HAT domain to tumor cell growth (Fig. 1a). To do so, we performed 10-point, dose-response growth assays using mixed pools of 460 barcoded cancer cell lines, over five days of treatment in vitro[33],[34]. Growth was measured using an area-under-the-curve (AUC) approach (Supplementary Table 1, Supplementary Fig. 1a). […] Given potential differences in compound penetration and solubility, and to compare the relative cell line and tumor-specific effects of these two compounds in assays performed non-simultaneously, we performed a median normalization of each dataset (Supplementary Table 2).
structure (smiles),measurement,setting,value
CNC(=O)Nc1ccc2c(c1)CCC21OC(=O)N(CC(=O)N(Cc2ccc(F)cc2)C(C)C(F)(F)F)C1=O (centres unmarked) [Compound A485],AUC,"22RV1, Prostate Cancer",0.5834
same,AUC,"42MGBA, Glioma",0.8468
same,AUC,"143B, Osteosarcoma",1
same,AUC,"639V, Bladder Cancer",0.8274
same,AUC,"647V, Bladder Cancer",0.6672
same,AUC,"697, B-cell Leukemia",0.5617
same,AUC,"769P, Kidney Cancer",0.6332
same,AUC,"5637, Bladder Cancer",0.8843
same,AUC,"8305C, Thyroid Cancer",0.7544
same,AUC,"A101D, Melanoma",0.9258
same,AUC,"A204, Rhabdoid",0.6513
same,AUC,"A253, Head and Neck Cancer",0.8228
same,AUC,"A375, Melanoma",0.749
same,AUC,"A427, Lung Cancer",0.6968
same,AUC,"A673, Ewing Sarcoma",1
same,AUC,"A1207, Glioblastoma",0.7712
same,AUC,"ACHN, Kidney Cancer",0.5417
same,AUC,"AGS, Gastric Cancer",0.7849
same,AUC,"AM38, Glioblastoma",1
same,AUC,"AN3CA, Endometrial/Uterine Cancer",0.8692
same,AUC,"AU565, Breast Cancer",0.7944
same,AUC,"BDCM, AML",0.9026
same,AUC,"BEN, Lung Cancer",0.8869
same,AUC,"BFTC905, Bladder Cancer",0.6715
same,AUC,"BHT101, Thyroid Cancer",0.6133
same,AUC,"BICR16, Head and Neck Cancer",0.6804
same,AUC,"BICR18, Head and Neck Cancer",1
same,AUC,"BICR22, Head and Neck Cancer",0.7556
same,AUC,"BICR31, Head and Neck Cancer",0.7077
same,AUC,"BICR56, Head and Neck Cancer",0.6769
same,AUC,"BT16, Rhabdoid",1
same,AUC,"BT474, Breast Cancer",0.9498
same,AUC,"C32, Melanoma",0.9339
same,AUC,"C8166, Lymphoma",0.6916
same,AUC,"CADOES1, Ewing Sarcoma",0.6865
same,AUC,"CAKI1, Kidney Cancer",0.6849
same,AUC,"CAL27, Head and Neck Cancer",0.7545
same,AUC,"CAL54, Kidney Cancer",0.4813
same,AUC,"CAL62, Thyroid Cancer",0.8629
same,AUC,"CAL78, Chondrosarcoma",0.8774
same,AUC,"CAL120, Breast Cancer",0.8951
same,AUC,"CAOV3, Ovarian Cancer",0.8124
same,AUC,"CBAGPN, Ewing Sarcoma",0.8343
same,AUC,"CCK81, Colon/Colorectal Cancer",0.7195
same,AUC,"CHAGOK1, Lung Cancer",0.9372
same,AUC,"CHL1, Melanoma",0.6205
same,AUC,"CHLA06ATRT, Rhabdoid",1
same,AUC,"CHLA10, Ewing Sarcoma",0.7781
same,AUC,"CHLA15, Neuroblastoma",0.7188
same,AUC,"CHLA57, Ewing Sarcoma",0.9584
same,AUC,"CHP212, Neuroblastoma",0.8072
same,AUC,"CI1, B-cell Lymphoma",0.7779
same,AUC,"CJM, Melanoma",0.6266
same,AUC,"CL11, Colon/Colorectal Cancer",0.6639
same,AUC,"CL34, Colon/Colorectal Cancer",0.6654
same,AUC,"CMLT1, CML",0.6607
same,AUC,"COGAR359, Rhabdoid",1
same,AUC,"COGE352, Ewing Sarcoma",1
same,AUC,"COLO320, Colon/Colorectal Cancer",1
same,AUC,"COLO678, Colon/Colorectal Cancer",0.7938
same,AUC,"COLO783, Melanoma",0.9045
same,AUC,"COLO792, Melanoma",0.7929
same,AUC,"CORL23, Lung Cancer",0.831
same,AUC,"CORL105, Lung Cancer",0.7616
same,AUC,"COV318, Ovarian Cancer",0.7366
same,AUC,"COV434, Ovarian Cancer",0.6392
same,AUC,"COV644, Ovarian Cancer",0.7528
same,AUC,"CW2, Colon/Colorectal Cancer",0.9324
same,AUC,"CW9019, Rhabdomyosarcoma",0.6452
same,AUC,"DAOY, Medulloblastoma",0.7773
same,AUC,"DEL, Lymphoma",0.7007
same,AUC,"DETROIT562, Head and Neck Cancer",0.6189
same,AUC,"DKMG, Glioblastoma",0.8817
same,AUC,"DL, Rhabdoid",0.6996
same,AUC,"DMS53, Lung Cancer",0.6382
same,AUC,"DMS273, Lung Cancer",0.7762
same,AUC,"DND41, T-acute leukemia",0.7502
same,AUC,"DU145, Prostate Cancer",0.8463
same,AUC,"DU4475, Breast Cancer",0.4233
same,AUC,"DV90, Lung Cancer",0.6128
same,AUC,"EB1, Lymphoma",1
same,AUC,"EBC1, Lung Cancer",0.8735
same,AUC,"ECC10, Gastric Cancer",0.8444
same,AUC,"ECGI10, Esophageal Cancer",0.8435
same,AUC,"EFE184, Endometrial/Uterine Cancer",1
same,AUC,"EFM19, Breast Cancer",0.5992
same,AUC,"EFO21, Ovarian Cancer",0.9024
same,AUC,"EM2, CML",0.902
same,AUC,"EN, Endometrial/Uterine Cancer",0.9736
same,AUC,"ES2, Ovarian Cancer",0.7477
same,AUC,"ESS1, Endometrial/Uterine Cancer",0.9044
same,AUC,"EW8, Ewing Sarcoma",0.7371
same,AUC,"EWS502, Ewing Sarcoma",0.6563
same,AUC,"FADU, Head and Neck Cancer",0.9573
same,AUC,"FTC133, Thyroid Cancer",0.8254
same,AUC,"FTC238, Thyroid Cancer",0.7484
same,AUC,"G292CLONEA141B1, Osteosarcoma",1
same,AUC,"G361, Melanoma",0.6803
same,AUC,"G401, Rhabdoid",1
same,AUC,"G402, Rhabdoid",0.9975
same,AUC,"GB1, Glioblastoma",0.7582
same,AUC,"GCT, Pleomorphic Sarcoma",0.8933
same,AUC,"GI1, Glioblastoma",0.757
same,AUC,"GOS3, Glioblastoma",0.9534
same,AUC,"GP2D, Colon/Colorectal Cancer",0.7575
same,AUC,"GRANTA519, Lymphoma",0.8493
same,AUC,"GSS, Gastric Cancer",0.6579
same,AUC,"HARA, Lung Cancer",0.7108
same,AUC,"HCC33, Lung Cancer",0.908
same,AUC,"HCC38, Breast Cancer",0.7435
same,AUC,"HCC44, Lung Cancer",0.6558
same,AUC,"HCC56, Colon/Colorectal Cancer",0.6212
same,AUC,"HCC78, Lung Cancer",0.7931
same,AUC,"HCC95, Lung Cancer",0.8823
same,AUC,"HCC515, Lung Cancer",0.6901
same,AUC,"HCC1419, Breast Cancer",0.6161
same,AUC,"HCC1428, Breast Cancer",0.6381
same,AUC,"HCC1438, Lung Cancer",0.9014
same,AUC,"HCC1806, Breast Cancer",0.8548
same,AUC,"HCC1937, Breast Cancer",0.6971
same,AUC,"HCC2108, Lung Cancer",1
same,AUC,"HCC4006, Lung Cancer",0.7024
same,AUC,"HCT116, Colon/Colorectal Cancer",0.9205
same,AUC,"HDMYZ, Lymphoma",1
same,AUC,"HDQP1, Breast Cancer",0.7294
same,AUC,"HEC1B, Endometrial/Uterine Cancer",0.8662
same,AUC,"HEC6, Endometrial/Uterine Cancer",0.9741
same,AUC,"HEC50B, Endometrial/Uterine Cancer",1
same,AUC,"HEL9217, AML",0.6119
same,AUC,"HEL, AML",0.5914
same,AUC,"HEP3B217, Liver Cancer",0.7234
same,AUC,"HEPG2, Liver Cancer",0.8554
same,AUC,"HEYA8, Ovarian Cancer",0.9784
same,AUC,"HGC27, Gastric Cancer",0.9226
same,AUC,"HH, Lymphoma",0.7764
same,AUC,"HOS, Osteosarcoma",0.9517
same,AUC,"HPBALL, T-acute leukemia",0.8767
same,AUC,"HS294T, Melanoma",0.8326
same,AUC,"HS766T, Pancreatic Cancer",0.7648
same,AUC,"HSC2, Head and Neck Cancer",0.6896
same,AUC,"HSC3, Head and Neck Cancer",0.8176
same,AUC,"HT29, Colon/Colorectal Cancer",0.7629
same,AUC,"HT115, Colon/Colorectal Cancer",1
same,AUC,"HT144, Melanoma",0.8574
same,AUC,"HT1197, Bladder Cancer",0.9829
same,AUC,"HT, B-cell Lymphoma",0.6247
same,AUC,"HUCCT1, Bile Duct Cancer",0.8158
same,AUC,"HUG1N, Gastric Cancer",0.7448
same,AUC,"HUH1, Liver Cancer",0.7158
same,AUC,"HUH7, Liver Cancer",1
same,AUC,"HUH28, Bile Duct Cancer",0.821
same,AUC,"HUPT3, Pancreatic Cancer",0.6895
same,AUC,"HUPT4, Pancreatic Cancer",0.6862
same,AUC,"HUT78, Lymphoma",0.9441
same,AUC,"IALM, Lung Cancer",0.6559
same,AUC,"IGR37, Melanoma",0.6843
same,AUC,"IGROV1, Ovarian Cancer",0.8359
same,AUC,"IM95, Gastric Cancer",0.7117
same,AUC,"IPC298, Melanoma",0.8033
same,AUC,"ISHIKAWAHERAKLIO02ER, Endometrial/Uterine Cancer",0.9178
same,AUC,"ISTMES1, Lung Cancer",0.7574
same,AUC,"J82, Bladder Cancer",0.8707
same,AUC,"JEKO1, Lymphoma",0.7073
same,AUC,"JHH1, Liver Cancer",0.7161
same,AUC,"JHH4, Liver Cancer",0.849
same,AUC,"JHH5, Liver Cancer",0.5701
same,AUC,"JHH7, Liver Cancer",0.6779
same,AUC,"JHOC5, Ovarian Cancer",0.8969
same,AUC,"JHUEM7, Endometrial/Uterine Cancer",1
same,AUC,"JVM3, B-cell Leukemia",0.6743
same,AUC,"K029AX, Melanoma",0.7933
same,AUC,"KALS1, Glioblastoma",0.6866
same,AUC,"KARPAS620, Myeloma",0.9002
same,AUC,"KATOIII, Gastric Cancer",0.6951
same,AUC,"KCL22, CML",0.6275
same,AUC,"KD, Rhabdoid",0.6425
same,AUC,"KE37, T-acute leukemia",0.6716
same,AUC,"KE39, Gastric Cancer",0.7203
same,AUC,"KELLY, Neuroblastoma",0.5242
same,AUC,"KMBC2, Bladder Cancer",0.7261
same,AUC,"KMS11, Myeloma",0.7944
same,AUC,"KMS12BM, Myeloma",0.9973
same,AUC,"KMS18, Myeloma",0.7657
same,AUC,"KMS21BM, Myeloma",0.9338
same,AUC,"KMS28BM, Myeloma",0.817
same,AUC,"KMS34, Myeloma",0.8682
same,AUC,"KNS42, Glioblastoma",0.8304
same,AUC,"KNS60, Glioblastoma",0.7072
same,AUC,"KNS62, Lung Cancer",0.8264
same,AUC,"KP3, Pancreatic Cancer",0.9118
same,AUC,"KPNYN, Neuroblastoma",0.9338
same,AUC,"KS1, Glioma",0.6653
same,AUC,"KU1919, Bladder Cancer",0.6431
same,AUC,"KYM1, Rhabdoid",0.5622
same,AUC,"KYSE30, Esophageal Cancer",0.6256
same,AUC,"KYSE150, Esophageal Cancer",0.8681
same,AUC,"KYSE410, Esophageal Cancer",0.9564
same,AUC,"KYSE510, Esophageal Cancer",0.7247
same,AUC,"KYSE520, Esophageal Cancer",0.7055
same,AUC,"LAMA84, CML",0.6928
same,AUC,"LC1SQSF, Lung Cancer",0.7027
same,AUC,"LCLC103H, Lung Cancer",0.9264
same,AUC,"LI7, Liver Cancer",0.7203
same,AUC,"LK2, Lung Cancer",0.847
same,AUC,"LMSU, Gastric Cancer",0.7223
same,AUC,"LN18, Glioblastoma",0.7097
same,AUC,"LNCAPCLONEFGC, Prostate Cancer",0.6119
same,AUC,"LOUNH91, Lung Cancer",0.9465
same,AUC,"LOVO, Colon/Colorectal Cancer",0.7392
same,AUC,"LOXIMVI, Melanoma",0.8926
same,AUC,"LS180, Colon/Colorectal Cancer",0.7453
same,AUC,"LS411N, Colon/Colorectal Cancer",0.8492
same,AUC,"LS1034, Colon/Colorectal Cancer",0.4819
same,AUC,"LUDLU1, Lung Cancer",0.9399
same,AUC,"LXF289, Lung Cancer",0.6887
same,AUC,"M059K, Glioblastoma",0.8677
same,AUC,"MALME3M, Melanoma",0.6048
same,AUC,"MC116, B-cell Lymphoma",0.8821
same,AUC,"MCAS, Ovarian Cancer",0.7202
same,AUC,"MCF7, Breast Cancer",0.7287
same,AUC,"MDAMB175VII, Breast Cancer",0.9247
same,AUC,"MDAMB231, Breast Cancer",0.7703
same,AUC,"MDAMB361, Breast Cancer",0.7016
same,AUC,"MDAMB436, Breast Cancer",0.9544
same,AUC,"MDAMB453, Breast Cancer",0.5182
same,AUC,"MDAMB468, Breast Cancer",1
same,AUC,"MDST8, Colon/Colorectal Cancer",0.8223
same,AUC,"MELHO, Melanoma",0.7944
same,AUC,"MESSA, Uterine Sarcoma",0.7132
same,AUC,"MFE280, Endometrial/Uterine Cancer",0.7775
